Test results as given in patent US8765688B2, “Anti-dandruff compositions containing peptides” (priority 2007, dated 2014).
Ends that are not written are not given here.

Experiments:
[1] = tested on: Malassezia furfur; assay: Effect of P18 variants against M. furfur, CFU after 24 hours at 50 μM; assay type: cell-based
Method: The inhibitory effect of the following P18 variants against M. furfur was analyzed:
The experiments were carried out as follows:
(§1) Growth medium: M472-Pityrosporum medium according to DSMZ
(§2) The components were sterilized at 121° C., 1 bar superatmospheric pressure for 20 minutes.
(§3) 2 g/L of olive oil (sterilized by filtration and, after autoclaving, added to the other components)
(§4) Since it was a two-phase medium, the complete medium was treated with sonication in order to enlarge the phase boundary.
(§5) For agar plates, if appropriate, 150 g/L of agar agar were added to the medium.
(§6) The growth test was carried out as follows: A shake flask with M472-Pityrosporum medium was inoculated with M. furfur and incubated with shaking overnight at 30° C. and 200 rpm.
A 96-well microtiter plate was filled with in each case 100 μl of M472-Pityrosporum medium and inoculated with M. furfur suspension of the overnight culture. The M. furfur suspension was adjusted at the start of the experiment to an optical density, measured at 600 nm, of 0.1. […]
After 24 hours, the colony-forming units (CFU were determined by plating out 10 μl from each of the suspensions and, after incubation for 6 days, counting the colonies. Two independent experiments with in each case three identical mixtures were carried out and the number of colony-forming units was averaged.

[2] = tested on: Malassezia furfur; assay: Minimum inhibitory concentration (MIC) of P18 in the presence of shampoo basic formulation 31-3, CFU after 24 hours; assay type: cell-based; settings: for CFU after 24 hours of incubation: in presence of shampoo basic formulation 31-3
Method: The minimum inhibitory concentration (MIC) of the peptide P18 (H-KWKLFKKIPKFLHLAKKF-NH2; carboxy-terminal end amidated; SEQ ID NO: 3) in the presence of the shampoo basic formulation 31-3 (table 16) was tested as follows: […]
The following shampoo basic formulation was prepared: […]
The shampoo basic formulation was prepared by mixing and dissolving the components Texapon NSO and Tego Betain L7. The pH was adjusted to pH 6-7 with NaOH.
The effect of the peptide against M. furfur was analyzed as follows:
as §1, §2, §3, §4, §5, §6
A 96-well microtiter plate was filled with in each case 170 μl of M472-Pityrosporum medium and inoculated with 10 μl of M. furfur suspension of the overnight culture. This corresponded to an optical density of 0.02-0.1, measured at 620 nm. 20 μl of shampoo basic formulation 31-3 were added to this mixture. Peptide P18 was dissolved in DMSO with a concentration of 10 mM.
The microtiter plate was incubated with shaking at 30° C.
After incubation for 24 hours, the colony-forming units (CFU) were determined by resuspending 1 μl of each of the suspensions in 10 μl of medium and then plating out the obtained suspensions. After incubation for 6 days, the colonies on the plate were counted. The experiment was carried out in double determination.

[3] = tested on: E. coli cells; assay: Biodegradability of P18: chymotrypsin digestion, then antimicrobial activity on E. coli cells; assay type: cell-based, Escherichia coli; settings: for optical density at 620 nm in two independent experiments: aqueous P18 solution 10 μM, undigested, cell gives both experiments
Method: Firstly, the peptide P18 was digested by adding chymotrypsin (from bovine pancreas, Sigma). For this, a 1 mM P18 solution was prepared and treated in accordance with the manufacturer's instructions. The samples were incubated for 16 hours at 37° C. The negative control used was a sample of a P18 solution without addition of chymotrypsin or a control solution which comprised only chymotrypsin, but no P18. The antimicrobial activity of P18 on E. coli cells was then investigated. The test was carried out as described in Example 3.
(§7) The growth of the following mixtures was compared by measuring the optical density:
E. coli suspension without the addition of an inhibitor.
E. coli suspension and addition of an aqueous P18 solution with a final concentration of 10 μM. The P18 solution had been stored beforehand for 16 hours at 37° C.
E. coli suspension and addition of an aqueous P18 solution with a final concentration of 10 μM. The P18 solution had been stored beforehand in accordance with the manufacturer's instructions for 16 hours at 37° C. and treated with chymotrypsin.
E. coli suspension and addition of an aqueous chymotrypsin solution which comprised, as control, the same amount of chymotrypsin as the P18 solution which was digested with chymotrypsin. This solution too had been stored beforehand for 16 hours at 37° C. This mixture was chosen in order to exclude an antimicrobial effect of the chymotrypsin.
The growth was observed over a period of 16 hours by measuring the optical density.

[4] = tested on: Escherichia coli; assay: Growth inhibition of Gram-negative bacteria by P18 (optical density at 620 nm); assay type: cell-based; settings: for optical density at 620 nm: E. coli suspension, 25 μM P18 solution, mean of 8 mixtures
Method: The growth inhibition by P18 was investigated on Gram-positive and Gram-negative bacteria. Shin et al. 1999 (loc.cit.) had already detected an inhibition on the model organisms Escherichia coli and Bacillus subtilis within a period up to 18 hours.
The growth medium used for this was LB medium as complex medium for the organisms Escherichia coli, Bacillus subtilis and Brevibacterium epidermidis. The medium comprised 10 g of trypton, 5 g of yeast extract and 10 g of NaCl per liter.
The growth test was carried out as follows: A shake flask with medium was inoculated with Escherichia coli, Bacillus subtilis or Brevibacterium epidermidis and incubated with shaking overnight at 30° C. and 200 rpm. A 96-well microtiter plate was filled with in each case 100 μl LB medium and inoculated with E.-coli, B.-subtilis or B. epidermidis suspensions of the overnight culture. The bacteria suspension was adjusted at the start of the experiment to an optical density, measured at 620 nm, of about 0.02. The concentrates of the P18 inhibitor solutions were 1 mM in water.
as §7
bacteria suspension without the addition of an inhibitor;
bacteria suspension and addition of an aqueous P18 solution with a final concentration of 25 μM. The aqueous P18 solution had been freshly prepared.
The growth was observed over a period of 40 hours by measuring the optical density. […] The growth of Gram-positive bacteria was inhibited initially.

Substance: KWKLFKKIPKFLHLAKKF-NH2 [P18, KWKLFKKIPKFLHLAKKF-NH2]
- Averaged number of colony-forming units (CFU) ([1]; 50 μM peptide in DMSO): 0
- inhibitory effect against M. furfur compared to DMSO ([1]; 50 μM, effectiveness increasing in the order P18AC-OH, P18-OH, P18): increased inhibitory effect against M. furfur as compared to DMSO
- CFU after 24 hours of incubation ([2]; P18 concentration 25 μM): 80
- CFU after 24 hours of incubation ([2]; P18 concentration 50 μM): 32
- CFU after 24 hours of incubation ([2]; P18 concentration 100 μM): 0
- CFU after 24 hours of incubation ([2]; P18 concentration 200 μM): 0
- CFU after 24 hours of incubation ([2]; P18 concentration 300 μM): 0
- CFU after 24 hours of incubation ([2]; P18 concentration 400 μM): 0
- CFU after 24 hours of incubation ([2]; P18 concentration 500 μM): 0
- P18 concentrations that completely inhibit growth of M. furfur ([2]; in the presence of shampoo basic formulation 31-3, 24 hours): above 100 μM
- optical density at 620 nm in two independent experiments ([3]; incubation time 0 h): 0-0
- optical density at 620 nm in two independent experiments ([3]; incubation time 16 h): 0.01-0.09
- biodegradability (protease digestion) ([3]; chymotrypsin, 16 hours at 37° C.): digestion of P18 with a serine protease, such as, for example, chymotrypsin, is possible
- growth of E. coli (in words) ([4]; 25 μM, period of 40 hours): effectively inhibited
- optical density at 620 nm ([4]; incubation time 16 h): 0.09
- optical density at 620 nm ([4]; incubation time 24 h): 0.06
- optical density at 620 nm ([4]; incubation time 40 h): 0.07
